Data: a melting point compilation (Tetko et al.; mined from patent text by program, amines drawn as free bases though some values may be those of a salt)

Compound `COc1ccc(N2CCOCC2)c2sc(C(=O)NCC(=O)Cc3cccs3)nc12` has a melting point of 165 °C.
For `Fc1cccc(Cl)c1-c1nc(F)n(-c2ccccc2C(F)(F)F)n1`, the melting point was 68 to 70 °C.
`CC(C)c1cc2c(c(O)c1-c1ccc3c(c1)CCCC3)CCCC2` showed a melting point of 110 °C.
Compound `Cc1cc(C(=O)O)ccc1C(N)(CC1c2ccccc2Oc2ccccc21)C(=O)O` (centres undefined) has a melting point of 215 to 216 °C.
`COCCn1cc(C(=O)NCc2ccc(Cl)cc2)c(=O)c2cc(CO)sc21` gave a melting point of 193 °C.
Compound `O=c1ccn([C@H]2C=C[C@@H](O)C2)cc1` (racemic) has a melting point of 188 to 189 °C.
For `COC(=O)[C@@H]1COC(=S)N1C(C)=O`, the melting point was 68 to 68.4 °C.
`CC#CCOc1ccc(S(=O)[C@@H](C(=O)NO)c2ccc(-c3cccs3)cc2)cc1` (some centres undefined) showed a melting point of 158 °C.
`CC1(C)CC(=C(c2ccc(O)cc2)c2ccc(C#CCCO)cc2)CC(C)(C)C1` gave a melting point of 183 to 184 °C.
For `CC#Cc1cc(Cl)nc(Nc2ccccc2)n1`, the melting point was 121 to 124 °C.
`CC(C)(C)OC(=O)c1nc(-c2ccccc2)[nH]c1-c1ccccn1` showed a melting point of 211 to 213 °C.
In the case of `CCOC(=O)c1cn2c(n1)CN(C(=O)OCC)c1ccccc1-2`, the melting point is reported as 151 to 153 °C.
`O=C(O)C1=C(c2ccccc2)c2cc(Cl)ccc2OC1C(F)(F)F` (centres undefined) gave a melting point of 226 to 227 °C.
Compound `Nc1cc(C(=O)OC2CCCC2)c(Cl)cc1F` has a melting point of 61 to 62 °C.
For `Cc1ncccc1CN(CCn1cc(C)c2occc2c1=O)Cc1ccc2c(c1)NC(=O)C(C)(C)C(=O)N2CC1CC1`, the melting point was 220 to 221 °C.
In the case of `CC(O)CCc1ccc(-c2ccccc2)cc1` (centres undefined), the melting point is reported as 74 to 75 °C.
Compound `COc1cc(O)c2c(=O)c(OC)c(-c3ccc(OC4OC(CO)C(O)C(O)C4O)c(OC)c3)oc2c1` (centres undefined) has a melting point of 203 to 204 °C.
For `Cn1nc(-c2cc(F)c([N+](=O)[O-])cc2F)c(Br)c1C(F)(F)F`, the melting point was 45.5 °C.
Compound `CCCCCC(=O)N1c2cscc2C(=O)N(C)c2ccccc21` has a melting point of 76 to 77 °C.
For `CS(=O)(=O)c1ccc(C(=O)c2ccc(F)cc2)cc1`, the melting point was 136 °C.
With `CCOC(=O)c1ccc(NC(=O)OC(C)(C)C)nn1` the melting point was 87 to 88 °C.
With `CS(=O)(=O)c1ccc(Oc2cccc(C(=O)Nc3ccc(F)cc3)n2)cc1` the melting point was 134 to 135 °C.
For `CCOC(=O)c1ccc(-c2ccc(-c3ccccc3)s2)s1`, the melting point was 113 to 115 °C.
Compound `O=C1NC(=O)C(F)(c2ccccc2)CO1` (centres undefined) has a melting point of 115 to 117 °C.
Compound `Cc1ccc(C(=O)NCCCSc2ccncc2)cc1` has a melting point of 110 to 111 °C.
For `Nc1nc(N2CCCC2)c2nc[nH]c2n1`, the melting point was 265 °C.
With `Clc1cncc(-n2ccc3ccccc32)c1` the melting point was 56 to 57 °C.
`CCCc1cc(=O)oc2c3c(c4c(c12)OC(C)(C)C=C4)OC(C)C(C)C3O` (single isomer, unassigned; (-)) showed a melting point of 52 to 54 °C.
`CCc1nc(CN(C)C(=O)N[C@H](C(=O)N[C@@H](Cc2ccccc2)C[C@H](O)[C@H](Cc2ccccc2)NC(=O)OCc2cncs2)C(C)C)cs1` showed a melting point of 70 to 71 °C.
Compound `CC(C)(C)C(=O)Nc1ccc2oc3c(c2c1)CCCC3` has a melting point of 210 to 211 °C.
With `Clc1cnc(Br)c(Cl)c1` the melting point was 37 to 38 °C.
Compound `Cc1ccc(C(=O)NN2CCOCC2)c(Nc2ccc3cn[nH]c3c2)n1` has a melting point of 265 to 268 °C.
In the case of `O=C(Nc1ccc(Cl)cn1)c1cc(Cl)ccc1NCC1CCN(C(=O)c2cccs2)CC1`, the melting point is reported as 163 to 165 °C.
For `O=S(=O)(Oc1ccccc1)c1ccc(O)cc1`, the melting point was 114 to 116 °C.
In the case of `CNC(=O)OCc1cnc2c(NC(=O)c3c(Cl)cccc3Cl)cccc2c1-n1ccnc1`, the melting point is reported as 240 to 242 °C.
With `CCN(C(=O)N1CCN(c2cc(C)cc(C)c2)CC1)c1cc(C)c(C)cc1OC` the melting point was 80 to 82 °C.
In the case of `CC(C)(C)OC(=O)NCC(=O)NCCCN1CCN(CCCNc2cccc3c2C(=O)c2ccccc2C3=O)CC1`, the melting point is reported as 118 °C.
In the case of `COc1nccc2oc(S(N)(=O)=O)cc12`, the melting point is reported as 180 to 182 °C.
With `CC(=O)Nc1ccc(C=O)cc1F` the melting point was 133 °C.
`Cc1ccc(C2(C#N)C3CC4CC(C3)CC2C4)cc1` (centres undefined) showed a melting point of 99 to 100 °C.
`Cc1cc(CNC(=O)c2cc(-n3cnn(Cc4ccc(F)cc4)c3=O)n[nH]2)[nH]n1` gave a melting point of 239 to 241 °C.
With `O=C(NC1CCN(C2CCCCC2)C1)c1cc([N+](=O)[O-])cc([N+](=O)[O-])c1` (centres undefined) the melting point was 159 to 161 °C.
Work on `Cc1ccc(Cl)cc1N1CN(C(C)C)CN(C)C1=S` yielded a melting point of 83 to 85 °C.
`CC(C)C1=CC(C(C)C)(S(=O)(=O)n2c(C3(O)C=CC(=O)C=C3)cc3ccccc32)CC(C(C)C)=C1` (centres undefined) gave a melting point of 55 to 57 °C.
For `N#Cc1c(N2CCCC2)cc(-c2ccccc2)c2c1-c1ccccc1C2=O`, the melting point was 202 to 204 °C.
`O=C(C#Cc1ccc(C(F)(F)F)cc1Cl)Nc1ccc(OCCn2cnnc2)cc1` showed a melting point of 223 to 227 °C.
Compound `CCOC(=O)c1cnc(NN)nc1C(F)(F)F` has a melting point of 89 to 90 °C.
Work on `FC(F)(F)c1cccc(-c2ccn3cnnc3n2)c1` yielded a melting point of 202 to 203 °C.
For `CC(=O)c1ccc(NS(C)(=O)=O)c(Oc2ccccc2S(C)(=O)=O)c1`, the melting point was 189 to 191 °C.
For `Nc1ccc(Cl)cc1C(=O)C(F)(F)F`, the melting point was 93 to 94 °C.
`CN(C(=O)CN1C(=O)c2ccccc2C1=O)c1ccc(Cl)c(CO)c1Cl` showed a melting point of 236 to 241 °C.
For `Fc1ccc(OC2CN(CCc3c[nH]c4ccccc34)C2)cc1`, the melting point was 111 to 113 °C.
Work on `COC(=O)Cn1c(C)cc(Cc2ccsc2)c([N+](=O)[O-])c1=O` yielded a melting point of 157 to 158 °C.
With `CC(C)(C)c1cc(CN)c(O)c(I)n1` the melting point was 162 to 165 °C.
`C#Cc1ccc2c(c1)C(c1ccccn1)=NCc1c(C(=O)NC)ncn1-2` gave a melting point of 215 to 216 °C.
With `CCCCCCCN(CCN1CCN(CCCSc2nc3ccccc3o2)CC1)C(=O)Nc1c(C(C)C)cccc1C(C)C` the melting point was 93 to 94 °C.
`O=c1ccc(-c2ccc(Cl)cc2)c[nH]1` gave a melting point of 183 to 186 °C.
In the case of `C[C@@H](NC(=O)c1cncc(-c2ccc(Cl)cc2)c1)[C@](O)(Cn1cncn1)c1ccc(F)cc1F`, the melting point is reported as 93 to 101 °C.
Work on `COc1ccc([C@]2(C)CNC(=O)O2)cc1OCC(C)C` yielded a melting point of 93.7 °C.
In the case of `CNC(=O)c1c(Nc2ccccc2[N+](=O)[O-])c(C)nn1C`, the melting point is reported as 223 to 225 °C.
With `COc1ccc(-c2nn(C(C)c3oc4ccccc4c(=O)c3-c3cccc(F)c3)c3ncnc(N)c23)cc1F` (centres undefined) the melting point was 222 to 224 °C.
In the case of `COc1ccc(Cn2c(=S)[nH]c(=O)c3[nH]cnc32)cc1OC1CCCC1`, the melting point is reported as 254 to 265 °C.
With `C[C@H](CSC(=O)c1ccccc1)C(=O)N1C(=O)N(Cc2ccccc2)C[C@H]1C(=O)O` the melting point was 145 °C.
For `CCCCCCCCCCCC1Cc2cc(C(=O)O)ccc2N1` (racemic), the melting point was 99 to 103 °C.
Work on `CCC(CC)N(O)C(=O)Nc1ccc(Br)cc1` yielded a melting point of 129 to 131 °C.
For `O=C1CC[C@@H](c2ccccc2)[C@H](c2ccccc2)N1` (relative stereo), the melting point was 160 to 164 °C.
`C=CCn1c(=O)n(CCCN2CCC3(CC2)C(=O)NCN3c2ccccc2)c2ccccc21` gave a melting point of 198 °C.
For `COC1C(O)CCC(O)(CSC)C1C1(C)OC1CC=C(C)C` (centres undefined), the melting point was 52 to 53 °C.
Compound `CCCCOC(=O)c1cc(Cl)ccc1N` has a melting point of 37 to 39 °C.
Compound `Cc1ccc(-c2ccc(C)cc2[N+](=O)[O-])c([N+](=O)[O-])c1` has a melting point of 138 to 141 °C.
In the case of `COC(=O)c1ccc2c(C(=O)c3ccccc3)c(C(=O)OC)ccc2c1`, the melting point is reported as 84 °C.
`COc1c(CN2C(=O)c3ccccc3C2=O)c2c(c3c1OC(C)(C)C3)C(c1ccccc1)=NC(C)(C)C2` gave a melting point of 193 to 195 °C.
Work on `COP(=O)(NC1C(=O)N2C(C(=O)OCc3ccc([N+](=O)[O-])cc3)=C(C=CN3CCCCC3)CSC12)OC` (centres undefined) yielded a melting point of 220 to 221 °C.
`CCc1nc2cc(C(=O)NC)c(Cl)cc2n1-c1ccc(CCNC(=O)NS(=O)(=O)c2ccc(C)cc2)cc1` showed a melting point of 122 to 135 °C.
`N#Cc1cnc2c(sc3c(N)cccc32)c1Nc1cccc(Br)c1` showed a melting point of 256 to 258 °C.
With `Cc1c(NC(=O)CC(C)(C)C)cc2c(c1C)OC(C)(C)C2(O)c1cccc(C(C)O)c1` (centres undefined) the melting point was 206 to 207 °C.
In the case of `CN(C)CCCOc1ccc(Nc2nccc(-c3ccncc3)n2)cc1`, the melting point is reported as 123 to 124 °C.
With `Clc1ccc(-c2nc(NCc3ccccc3)c3ccccc3n2)cn1` the melting point was 212 °C.
For `Cc1ccc(S(=O)(=O)OCC2Cc3cc(C)c4c(c3O2)CCC4)cc1` (centres undefined), the melting point was 61 to 64 °C.
For `O=C(O)c1c(SCCO)c(SCCO)c(SCCO)c(SCCO)c1C(O)=NCCO`, the melting point was 152 to 157 °C.
For `COc1ccc2ccc(O)c(C3NCCc4ccccc43)c2c1` (centres undefined), the melting point was 126 to 130 °C.
For `c1cc2c(cn1)OCCN2`, the melting point was 167 to 169 °C.
Compound `O=C(O)COc1ccc(SCc2ccc(OCc3ccc(CF)cc3)cc2)c2c1CCC2` has a melting point of 153 to 155 °C.
`O=C(COc1ccccc1)Nc1ccc(CN2C(=O)[C@H]3CCC[C@H]3N(C(=O)CN3C(=O)c4ccccc4C3=O)c3ccccc32)cc1` (relative stereo) showed a melting point of 134 to 137 °C.
In the case of `Nc1cc2c(cc1Oc1ccccc1)C(=O)OC2`, the melting point is reported as 205 to 206 °C.
With `CCCCC(=O)Nc1ccccc1C(F)(F)F` the melting point was 63 °C.
`CCOCc1nc2c(N)nc3cc(OCc4ccc(F)cc4)ccc3c2n1CC(C)(C)NS(C)(=O)=O` gave a melting point of 251 to 253 °C.
With `COC(=O)c1cc(O)nc2ccccc12` the melting point was 240 to 241 °C.
With `Cn1cccc1CNCC1(c2cccc(C(F)(F)F)c2)CCN(C(=O)CN2CCN(c3cnccn3)CC2)CC1` the melting point was 104 to 105 °C.
Compound `CC1C(=O)N(c2ccc(O)cc2)C(=S)N1c1ccc(Oc2ccc(F)cc2)cc1` (centres undefined) has a melting point of 148 °C.
Compound `CCOC(=O)c1ccc(N2C(=O)CCC2CO)c([N+](=O)[O-])c1` (centres undefined) has a melting point of 90 to 95 °C.
`COc1nc(OC)nc(OC(C(=O)O)C(C)(C)C)n1` (centres undefined) gave a melting point of 37 to 40 °C.
With `CC(=O)O[C@H]1CCCNC1=O` the melting point was 77 to 78 °C.
For `CS(=O)(=O)c1ccc(-c2cnn(CC(F)(F)F)c(=O)c2Sc2ccc(F)cc2)cc1`, the melting point was 182 to 185 °C.
Compound `COC(=O)c1cc(N(C)C(C)=O)c(Cl)c(N(C)C(C)=O)c1` has a melting point of 162 to 164 °C.
Compound `O=C1CCC(=O)N(c2ccc(N3CCN(C4(c5ccc(-c6ccccc6)cc5)C(=O)NC(=O)NC4=O)CC3)cc2)C1` has a melting point of 300 to 301 °C.
For `CCCC(=O)NCCCCn1c(CC)nc2c(N)nc3ccccc3c21`, the melting point was 148 to 149 °C.
Work on `COc1cc([N+](=O)[O-])cc(OC(F)F)c1OC` yielded a melting point of 72 to 73 °C.
For `N#CCc1cccc2c(-c3ccc(F)cc3)nccc12`, the melting point was 136 °C.
